The values below are quoted from earlier work in publication PMC6650409, “Modeling the binding of diverse ligands within the Ah receptor ligand binding domain” (Scientific Reports, 2019).

Changes are numbered by the printed parent chain.

Set-up in all cases: method as in PMID 21981577
One data set deals with T1, S359A mutant AhR (Mus musculus, UniProt P30561, S359A).
T1 construct: made in house; host or cells: in vitro, Promega TNT Quick rabbit reticulocyte lysate
T1 sequence (P30561 10-848 S359A): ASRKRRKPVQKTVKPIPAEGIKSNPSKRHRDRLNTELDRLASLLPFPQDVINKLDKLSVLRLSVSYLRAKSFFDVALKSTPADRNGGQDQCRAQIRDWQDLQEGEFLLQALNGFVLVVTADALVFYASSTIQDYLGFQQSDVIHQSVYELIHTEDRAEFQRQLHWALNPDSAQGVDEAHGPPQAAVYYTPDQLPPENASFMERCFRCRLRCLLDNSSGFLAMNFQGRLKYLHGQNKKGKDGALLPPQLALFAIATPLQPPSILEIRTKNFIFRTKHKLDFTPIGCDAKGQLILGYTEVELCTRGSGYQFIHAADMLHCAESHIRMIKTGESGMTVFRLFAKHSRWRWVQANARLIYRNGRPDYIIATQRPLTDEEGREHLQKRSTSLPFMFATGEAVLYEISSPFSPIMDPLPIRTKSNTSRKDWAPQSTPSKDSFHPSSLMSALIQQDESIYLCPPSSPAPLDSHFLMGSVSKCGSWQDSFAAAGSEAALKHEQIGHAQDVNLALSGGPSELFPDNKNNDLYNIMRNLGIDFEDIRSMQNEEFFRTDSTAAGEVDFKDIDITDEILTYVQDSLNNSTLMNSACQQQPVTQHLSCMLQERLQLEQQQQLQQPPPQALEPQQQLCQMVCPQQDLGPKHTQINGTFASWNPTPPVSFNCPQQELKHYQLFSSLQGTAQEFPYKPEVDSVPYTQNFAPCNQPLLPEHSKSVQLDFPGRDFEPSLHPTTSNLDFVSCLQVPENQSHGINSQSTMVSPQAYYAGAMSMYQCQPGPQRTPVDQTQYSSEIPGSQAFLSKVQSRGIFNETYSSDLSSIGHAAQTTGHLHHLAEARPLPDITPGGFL
The conditions noted are these: S359A mutation; cited from earlier work.

The target in a further data set is T2, C327A mutant AhR (Mus musculus, UniProt P30561, C327A).
T2 construct: made in house; host or cells: in vitro, Promega TNT Quick rabbit reticulocyte lysate
T2 sequence (P30561 10-848 C327A): T1 sequence (P30561 10-848 S359A) with C318A, A350S
The following applies: C327A mutation; cited from earlier work.

The target in the next data set is T3, L309A mutant AhR (Mus musculus, UniProt P30561, L309A).
T3 construct: made in house; host or cells: in vitro transcription/translation (rabbit reticulocyte lysate)
T3 sequence (P30561 10-848 L309A): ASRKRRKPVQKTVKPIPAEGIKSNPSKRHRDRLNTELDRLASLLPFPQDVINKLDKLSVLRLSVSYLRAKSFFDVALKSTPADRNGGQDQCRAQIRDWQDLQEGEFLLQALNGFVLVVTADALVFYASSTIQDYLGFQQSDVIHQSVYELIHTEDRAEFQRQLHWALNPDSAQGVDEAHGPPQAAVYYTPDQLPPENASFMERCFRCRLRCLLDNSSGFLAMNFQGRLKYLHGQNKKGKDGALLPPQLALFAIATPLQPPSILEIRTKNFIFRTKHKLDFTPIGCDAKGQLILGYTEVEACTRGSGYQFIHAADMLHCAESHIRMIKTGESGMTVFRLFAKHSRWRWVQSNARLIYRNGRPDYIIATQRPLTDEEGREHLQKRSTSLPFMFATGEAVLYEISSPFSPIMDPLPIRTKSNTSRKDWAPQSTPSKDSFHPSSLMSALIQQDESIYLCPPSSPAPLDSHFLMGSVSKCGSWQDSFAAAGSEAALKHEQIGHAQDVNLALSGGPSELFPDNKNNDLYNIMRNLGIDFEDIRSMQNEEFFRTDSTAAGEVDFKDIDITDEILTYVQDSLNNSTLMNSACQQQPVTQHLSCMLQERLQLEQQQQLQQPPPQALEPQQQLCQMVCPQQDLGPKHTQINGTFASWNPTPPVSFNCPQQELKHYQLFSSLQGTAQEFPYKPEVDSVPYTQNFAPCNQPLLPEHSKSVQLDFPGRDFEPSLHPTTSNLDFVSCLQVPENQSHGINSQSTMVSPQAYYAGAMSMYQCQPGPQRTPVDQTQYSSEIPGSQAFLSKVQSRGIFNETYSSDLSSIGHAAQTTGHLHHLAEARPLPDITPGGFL
T3 sequence (P53762 whole entry partner): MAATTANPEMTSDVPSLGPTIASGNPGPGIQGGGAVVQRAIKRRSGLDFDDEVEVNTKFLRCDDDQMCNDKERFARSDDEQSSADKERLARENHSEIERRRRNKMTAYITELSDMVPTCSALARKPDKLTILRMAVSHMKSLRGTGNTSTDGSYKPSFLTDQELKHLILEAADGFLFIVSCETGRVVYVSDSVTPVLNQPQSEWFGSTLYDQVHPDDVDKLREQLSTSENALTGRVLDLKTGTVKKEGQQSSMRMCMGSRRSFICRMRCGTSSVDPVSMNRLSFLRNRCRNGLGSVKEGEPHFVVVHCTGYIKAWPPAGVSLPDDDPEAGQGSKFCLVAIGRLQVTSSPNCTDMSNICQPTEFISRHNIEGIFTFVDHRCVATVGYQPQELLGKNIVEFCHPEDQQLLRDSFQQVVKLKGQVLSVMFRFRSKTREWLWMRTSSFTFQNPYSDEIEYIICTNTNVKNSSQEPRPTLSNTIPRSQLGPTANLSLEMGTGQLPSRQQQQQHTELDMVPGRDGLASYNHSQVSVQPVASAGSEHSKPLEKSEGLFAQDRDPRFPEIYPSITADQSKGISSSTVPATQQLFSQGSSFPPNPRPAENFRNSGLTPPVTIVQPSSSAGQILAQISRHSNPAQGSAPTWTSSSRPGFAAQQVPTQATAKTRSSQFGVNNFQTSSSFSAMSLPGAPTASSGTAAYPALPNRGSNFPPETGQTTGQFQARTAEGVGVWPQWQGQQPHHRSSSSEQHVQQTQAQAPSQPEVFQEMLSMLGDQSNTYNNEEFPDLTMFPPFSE
The following applies: L309A mutation; cited from earlier work.

In the case of `Clc1cc2c(cc1Cl)Oc1cc(Cl)c(Cl)cc1O2` [TCDD, 2,3,7,8-tetrachlorodibenzo-p-dioxin], the figures for the TCDD binding activity entry on S359A mutant AhR, on C327A mutant AhR and at L309A mutant AhR were “only partially affected”, “only partially affected” and “dramatically reduced”, respectively.
